{"source": "patent US20250340560A1", "about": "“SUBSTITUTED PYRAZOLO[1,5-a]PYRIMIDINES AS BRUTON'S TYROSINE KINASE MODULATORS” (BEIGENE SWITZERLAND GMBH, priority 2013, published 2025)", "note": "Counter-ions that a name gives are not always drawn."}
{"molecular_target": "Recombinant Btk (Homo sapiens (Human), UniProt Q06187)", "sequence (Q06187 whole entry)": "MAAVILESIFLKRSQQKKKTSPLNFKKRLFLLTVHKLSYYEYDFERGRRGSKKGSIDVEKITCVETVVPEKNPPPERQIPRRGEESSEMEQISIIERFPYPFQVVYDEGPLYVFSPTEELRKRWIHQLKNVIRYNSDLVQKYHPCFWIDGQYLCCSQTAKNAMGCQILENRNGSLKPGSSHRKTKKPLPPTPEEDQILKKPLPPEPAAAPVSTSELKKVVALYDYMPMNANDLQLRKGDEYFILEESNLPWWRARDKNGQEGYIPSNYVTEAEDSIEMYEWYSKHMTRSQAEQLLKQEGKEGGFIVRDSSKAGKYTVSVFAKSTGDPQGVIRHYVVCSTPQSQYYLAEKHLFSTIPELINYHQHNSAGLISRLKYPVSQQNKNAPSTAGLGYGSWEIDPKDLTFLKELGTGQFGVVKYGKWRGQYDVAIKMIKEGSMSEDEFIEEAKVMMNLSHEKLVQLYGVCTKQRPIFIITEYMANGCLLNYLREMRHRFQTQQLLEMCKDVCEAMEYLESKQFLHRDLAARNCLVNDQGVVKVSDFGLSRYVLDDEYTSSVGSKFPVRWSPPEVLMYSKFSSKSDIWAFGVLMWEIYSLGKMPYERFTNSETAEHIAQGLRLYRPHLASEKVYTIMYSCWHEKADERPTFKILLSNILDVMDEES", "test": "BTK kinase assay (TR-FRET)", "settings": "read-out: IC50 (nM) Btk; 1 hour pre-incubation, ATP at Km", "units": {"IC50": "nM"}}
{"smiles": "C=CC(=O)N1CCC(C2CCNc3c(C(N)=O)c(-c4ccccc4)nn32)CC1", "note": "(stereo not drawn) [Compound 144, 7-(1-acryloylpiperidin-4-yl)-2-phenyl-4,5,6,7-tetrahydropyrazolo[1,5-a]pyrimidine-3-carboxamide trifluoroacetate]", "IC50": 140}
{"smiles": "C=CC(=O)Nc1ccc(Cl)c(C2CCNc3c(C(N)=O)c(-c4ccc(Oc5ccccc5)cc4)nn32)c1", "note": "(stereo not drawn) [Compound 96, 7-(5-acrylamido-2-chlorophenyl)-2-(4-phenoxyphenyl)-4,5,6,7-tetrahydropyrazolo[1,5-a]pyrimidine-3-carboxamide]", "IC50": 30}
{"smiles": "CN(C)C/C=C/C(=O)N1CCCc2[nH]c3c(C(N)=O)c(-c4ccc(Oc5ccccc5)cc4)nn3c2C1", "note": "[Compound 124, (E)-8-(4-(dimethylamino)but-2-enoyl)-2-(4-phenoxyphenyl)-4,5,6,7,8,9-hexahydropyrazolo[5′,1′:2,3]imidazo[4,5-c]azepine-3-carboxamide]", "IC50": 0.62}
{"smiles": "NC(=O)c1c(-c2ccc(Oc3ccccc3)cc2)nn2cc(-c3cccc(N)c3)[nH]c12", "note": "[Compound 47, 2-(3-Aminophenyl)-6-(4-phenoxyphenyl)-1H-imidazo[1,2-b]pyrazole-7-carboxamide]", "IC50": 110}
{"smiles": "C=CC(=O)NCC1(C)CCNc2c(C(N)=O)c(-c3ccc(Oc4ccccc4)cc3)nn21", "note": "(stereo not drawn) [Compound 143, 7-(acrylamidomethyl)-7-methyl-2-(4-phenoxyphenyl)-4,5,6,7-tetrahydropyrazolo[1,5-a]pyrimidine-3-carboxamide]", "IC50": 0.89}
{"smiles": "NC(=O)c1c(-c2ccc(Oc3ccccc3)cc2)nn2c(-c3cccc(N)c3)ccnc12", "note": "[Compound 7, 7-(3-Aminophenyl)-2-(4-phenoxyphenyl)pyrazolo[1,5-a]pyrimidine-3-carboxamide]", "IC50": "> 10000"}
{"smiles": "NC(=O)c1c(-c2ccc(Oc3ccccc3)cc2)nn2c1NCCC2C1CCNCC1", "note": "(stereo not drawn) [Compound 26, 7-(Piperidin-4-yl)-2-(4-phenoxyphenyl)-4,5,6,7-tetrahydropyrazolo [1,5-a]pyrimidine-3-carboxamide trifluoroacetate]", "IC50": 1700}
{"smiles": "NC(=O)c1c(-c2ccc(Oc3ccccc3)cc2)nn2c1NC(=O)Cc1cc(N)ccc1-2", "note": "[Compound 74, 8-Amino-5-oxo-2-(4-phenoxyphenyl)-5,6-dihydro-4H-benzo[f]pyrazolo[1,5-a][1,3]diazepine-3-carboxamide]", "IC50": 240}
{"smiles": "NC(=O)c1c(-c2ccc(F)c(Cl)c2)nn2c1NCCC2c1ccccc1NC(=O)/C=C/CN1CCCCC1", "note": "(stereo not drawn) [Compound 153, (E)-2-(3-Chloro-4-fluorophenyl)-7-(2-(4-(piperidin-1-yl)but-2-enamido)phenyl)-4,5,6,7-tetrahydropyrazolo[1,5-a]pyrimidine-3-carboxamide]", "IC50": 6.1}
{"smiles": "C=CC(=O)Nc1ccc2c(c1)-n1nc(-c3ccc(Oc4ccccc4)cc3)c(C(N)=O)c1NC2", "note": "[Compound 69, 8-Acrylamido-2-(4-phenoxyphenyl)-4,5-dihydropyrazolo[1,5-a]quinazoline-3-carboxamide]", "IC50": 7.8}
{"smiles": "CC#CC(=O)N1CCC(C2CCNc3c(C(N)=O)c(-c4ccc(Oc5cccc(Cl)c5)cc4)nn32)CC1", "note": "(stereo not drawn) [Compound 195, 7-(1-(But-2-ynoyl)piperidin-4-yl)-2-(4-(3-chlorophenoxy)phenyl)-4,5,6,7-tetrahydropyrazolo[1,5-a]pyrimidine-3-carboxamide]", "IC50": 8}
{"smiles": "COc1ccc(-c2nn3c(c2C(N)=O)NCCC3c2ccccc2N)cc1", "note": "(stereo not drawn) [Compound 93, 7-(2-Aminophenyl)-2-(4-methoxyphenyl)-4,5,6,7-tetrahydropyrazolo[1,5-a]pyrimidine-3-carboxamide]", "IC50": 1500}
{"smiles": "C=CC(=O)Nc1ccccc1C1CCNc2c(C(N)=O)c(-c3cc(F)c(F)c(Cl)c3)nn21", "note": "(stereo not drawn) [Compound 158, 7-(2-Acrylamidophenyl)-2-(3-chloro-4.5-difluorophenyl)-4,5,6,7-tetrahydropyrazolo[1,5-a]pyrimidine-3-carboxamide]", "IC50": 2.9}
{"smiles": "C=CC(=O)N1CC2(CNc3c(C(N)=O)c(-c4ccc(Oc5ccccc5)cc4)nn32)C1", "note": "[Compound 46, 1-Acryloyl-6′-(4-phenoxyphenyl)-1′,2′-dihydrospiro[azetidine-3,3′-imidazo[1,2-b]pyrazole]-7′-carboxamide]", "IC50": 5}
{"smiles": "CC#CC(=O)N1CCC(C2CCNc3c(C(N)=O)c(-c4ccc(Oc5ccc(F)cc5F)cc4)nn32)CC1", "note": "(stereo not drawn) [Compound 179, 7-(1-(But-2-ynoyl)piperidin-4-yl)-2-(4-(2,4-difluorophenoxy)phenyl)-4,5,6,7-tetrahydropyrazolo[1,5-a]pyrimidine-3-carboxamide]", "IC50": 48}
{"smiles": "C=CC(=O)N1CCC2(CC1)C(=O)Nc1c(C(N)=O)c(-c3ccc(Oc4ccccc4)cc3)nn12", "note": "[Compound 83, 1′-Acryloyl-2-oxo-6-(4-phenoxyphenyl)-1,2-dihydrospiro[imidazo[1,2-b]pyrazole-3,4′-piperidine]-7-carboxamide]", "IC50": 130}
{"smiles": "C=CC(=O)Nc1ccccc1C1CCNc2c(C(N)=O)c(-c3cccc(OC)c3)nn21", "note": "(stereo not drawn) [Compound 166, 7-(2-Acrylamidophenyl)-2-(3-methoxyphenyl)-4,5,6,7-tetrahydropyrazolo[1,5-a]pyrimidine-3-carboxamide]", "IC50": 2.7}
{"smiles": "C=CC(=O)N1CC2(CCNc3c(C(N)=O)c(-c4ccc(Oc5ccccc5)cc4)nn32)C1", "note": "[Compound 119, 1-acryloyl-2′-(4-phenoxyphenyl)-5′,6′-dihydro-4′H-spiro[azetidine-3,7′-pyrazolo[1,5-a]pyrimidine]-3′-carboxamide]", "IC50": 40}
{"smiles": "CN(C)CC#CC(=O)N1CCC([C@@H]2CCNc3c(C(N)=O)c(-c4ccc(Oc5ccccc5)cc4)nn32)CC1", "note": "[Compound 188, (S)-7-(1-(4-(Dimethylamino)but-2-ynoyl)piperidin-4-yl)-2-(4-phenoxyphenyl)-4,5,6,7-tetrahydropyrazolo[1,5-a]pyrimidine-3-carboxamide]", "IC50": 1.1}
{"smiles": "CCCC#CC(=O)N1CCC([C@@H]2CCNc3c(C(N)=O)c(-c4ccc(Oc5ccccc5)cc4)nn32)CC1", "note": "[Compound 193, (S)-7-(1-(Hex-2-ynoyl)piperidin-4-yl)-2-(4-phenoxyphenyl)-4,5,6,7-tetrahydropyrazolo[1,5-a]pyrimidine-3-carboxamide]", "IC50": 3.9}
{"smiles": "C=CC(=O)Nc1ccccc1C1CCNc2c(C(N)=O)c(-c3cccc(Cl)c3)nn21", "note": "(stereo not drawn) [Compound 155, 7-(2-Acrylamidophenyl)-2-(3-chlorophenyl)-4,5,6,7-tetrahydropyrazolo[1,5-a]pyrimidine-3-carboxamide]", "IC50": 0.96}
{"smiles": "C=CC(=O)Nc1ccccc1C1CCNc2c(C(N)=O)c(-c3ccc(Cl)c(Cl)c3)nn21", "note": "(stereo not drawn) [Compound 156, 7-(2-Acrylamidophenyl)-2-(3,4-dichlorophenyl)-4,5,6,7-tetrahydropyrazolo[1,5-a]pyrimidine-3-carboxamide]", "IC50": 0.55}
{"smiles": "NC(=O)c1c(-c2ccc(Oc3ccc(F)cc3)cc2)nn2c1NCCC2c1ccccc1N", "note": "(stereo not drawn) [Compound 11, 7-(2-Aminophenyl)-2-(4-(4-fluorophenoxy)phenyl)-4,5,6,7-tetrahydro pyrazolo[1,5-a]pyrimidine-3-carboxamide]", "IC50": 4500}
{"smiles": "NC(=O)c1c(-c2ccc(OCC3CC3)cc2)nn2c1NCCC2c1ccccc1N", "note": "(stereo not drawn) [Compound 19, 7-(2-Aminophenyl)-2-(4-(cyclopropylmethoxy)phenyl)-4,5,6,7-tetrahydropyrazolo[1,5-a]pyrimidine-3-carboxamide]", "IC50": 5300}
